This series in a line: Water solubility at the designated pH. It is filed as physicochemical. An excerpt:
As described herein, the present compounds are useful as prodrugs and, accordingly, impart improved physical and/or physiological characteristics over the parent compound. Such characteristics include half-life and water solubility. In certain embodiments, a compound of the present invention provides improvement with regard to one or more physical or physiological characteristics. In other embodiments, a compound of the present invention imparts improvement with regard to one or more physical and physiological characteristics. A summary of the results of comparison between certain compounds of the present invention and the parent compound is set forth in Table 3 below wherein all pharmacokinetic data reported was obtained in rat.
As used herein, the phrase “Relative AUC” refers to the ration of the area under the curve for a compound of the present invention and the area under the curve for the parent compound. Unless otherwise indicated, the data was obtained for the designated compound as the free base. The term “T½ (hr)” refers to the half life of the compound in hours. As used in Table 3, the term “Solubility” relates to the water solubility of the designated compound in mg per mL at the designated pH.

≈ marks a conversion by molar mass, not a printed value. Counter-ions that a name gives are not always drawn.

`CC[C@H](COC(C)=O)Nc1ncc(C)c(-c2c[nH]c(C(=O)N[C@H](COC(C)=O)c3cccc(Cl)c3)c2)n1` [I-1 (HCl salt)] yielded a solubility (water solubility at pH 2.2) of 19 mg/mL.
As to `CCC(CO)Nc1ncc(C)c(-c2c[nH]c(C(=O)NC(CO)c3cccc(Cl)c3)c2)n1` (centres unmarked) [Parent, 4-[2-(1-hydroxymethyl-propylamino)-5-methyl-pyrimidin-4-yl]-1H-pyrrole-2-carboxylic acid [1-(3-chloro-phenyl)-2-hydroxy-ethyl]-amide, reference compound], the solubility stood at 4.7 mg/mL (≈ 10.6 mM) (water solubility at pH 1) and 0.015 mg/mL (≈ 0.0338 mM) (water solubility at pH 7).
As to `CC[C@H](COC(=O)COCCOC)Nc1ncc(C)c(-c2c[nH]c(C(=O)N[C@H](COC(=O)COCCOC)c3cccc(Cl)c3)c2)n1` [I-21 Ms salt], the solubility (water solubility at pH 2.5) amounted to 12.4 mg/mL.
With `CC[C@H](COC(=O)CCC(=O)O)Nc1ncc(C)c(-c2c[nH]c(C(=O)N[C@H](COC(=O)CCC(=O)O)c3cccc(Cl)c3)c2)n1` [Compound I-18, Succinic acid, mono-[2-(4-{5-[2-(3-carboxy-propionyloxy)-1-(3-chloro-(S)-phenyl)-ethylcarbamyl]-1H-pyrrol-3-yl}-5-methyl-pyrimidin-2-ylamino)-(S)-butyl]ester], the solubility (water solubility at pH 6.87) stood at 12.6 mg/mL (≈ 19.6 mM).
Regarding `CC[C@H](COC(=O)[C@@H](NC)C(C)C)Nc1ncc(C)c(-c2c[nH]c(C(=O)N[C@H](COC(=O)[C@@H](NC)C(C)C)c3cccc(Cl)c3)c2)n1` [I-20 (HCl salt), 3-Methyl-2-methylamino-butyric acid 2-(4-{5-[1-(3-chloro-phenyl)-2-(3-methyl-2-methylamino-butyryloxy)-ethylcarbamoyl]-1H-pyrrol-3-yl}-5-methyl-pyrimidin-2-ylamino)-butyl ester, tris HCl salt], the solubility (water solubility at pH 3.8) amounted to 7.71 mg/mL.
Turning to `CC[C@H](COC(=O)[C@@H](N)C(C)C)Nc1ncc(C)c(-c2c[nH]c(C(=O)N[C@H](COC(=O)[C@@H](N)C(C)C)c3cccc(Cl)c3)c2)n1` [Compound I-10, 2-(S)-Amino-3-methyl-butyric acid 2-(4-{5-[2-(2-(S)-amino-3-methyl-butyryloxy)-1-(3-chloro-(S)-phenyl)-ethylcarbamoyl]-1H-pyrrol-3-yl}-5-methyl-pyrimidin-2-ylamino)-(S)-butyl ester], the solubility (water solubility at pH 3.3) stood at 11.5 mg/mL (≈ 17.9 mM).
For `CC[C@H](COP(=O)(O)O)Nc1ncc(C)c(-c2c[nH]c(C(=O)N[C@H](COP(=O)(O)O)c3cccc(Cl)c3)c2)n1` [I-23 (Na salt)], the solubility (water solubility at pH 7.15) was 3.8 mg/mL.

The record behind these values is patent US7358258B2, “Prodrugs of an ERK protein kinase inhibitor” (Vertex Pharmaceuticals Incorporated, priority 2004, dated 2008).
